Values of other authors in US20060073539A1 (priority 2001, published 2006).

System: human hepatocyte and neuroblastoma cells
Settings: cited from earlier work

Row | Compound | effect on cell metabolism
1 | CCOP(=O)(OCC)Oc1ccc([N+](=O)[O-])cc1 [paraoxon] | opposite effects
2 | CCOP(=S)(OCC)Oc1ccc([N+](=O)[O-])cc1 [parathion] | opposite effects
